Source: patent US9164090B2, “Methods for detecting molecular interactions” (Korea Advanced Institute of Science and Technology, priority 2007, dated 2015)

Tests used:
FKBP protein = target: T1, FKBP protein (Homo sapiens, UniProt P62942); assay: Formation of nano-assembly matrices of FKBP (wild type)-ferritin by AP1510 in Hela cells; format: cell-based; conditions: 1 μM AP1510
T1 construct: fluorescent protein (mRFP); ferritin (FT); expressed in transfected cells; host or cells: HeLa
Excerpt: In this experiment, a FKBP (wild type) protein was used as a material for inducing the formation of nano-assembly matrices, while an AP1510 compound was used as a material for mediating the binding between FKBP proteins. The AP1510 compound is a FK506-like compound and is a mediator (regulator) material, which has two moieties capable of binding to the FKBP protein, linked with each other by a linker, such that it can interact simultaneously with two molecules of the FKBP protein.
Two FKBP (wild type) proteins were continuously fused to ferritin and expressed in Hela cells. The cells were treated with 1 μM of the AP1510 compound, which is an FKBP interaction mediator (regulator) material, and the formation of nano-assembly matrices within 1 hour was observed through In-Cell Analyzer 1000 (GE) (FIG. 35). After the formation of the nano-assembly matrices was induced for 3 hours, the cells were treated with 250 nM of Rapamycin for 1 hour.
For the case where mRFP was attached to the FKBP protein in Example 7, various fluorescent proteins, such as ECFP, TagCFP and mTFP1, were attached to the FKBP protein to examine the effect of the AP1510 compound on the induction of formation of nano-assembly matrices.
FKBP was fused to the ferritin protein, and the three different fluorescent proteins were attached between FKBP and ferritin, and then expressed in Hela cells. […]

IkBα and IKKb = assay: Formation of nano-assembly matrix by IKKb-IkBα interaction on physiological signal in Hela cells; format: cell-based; conditions: TNFa treatment; FRB-ECFP-FT, IKKb-mRFP-FKBP and IkBα-YFP-FKBP
Excerpt: In another example, IKKb-IkBα proteins were used as prey-bait, and TNFa was used as a material for mediating (regulating) the interaction between them. The IkBα and IKKb proteins interact with each other, only when a physiological external signal of TNFa is transferred to cells. The interaction between phosphorylase (such as IKKb) and IkBα that is the substrate thereof is known as one of the weakest interactions in cells. The recombinant genes FRB-ECFP-FT, IKKb-mRFP-FKBP and IkBα-YFP-FKBP were introduced together into Hela cells, and each of the fusion proteins was expressed in the cells.

T1 sequence (P62942 whole entry): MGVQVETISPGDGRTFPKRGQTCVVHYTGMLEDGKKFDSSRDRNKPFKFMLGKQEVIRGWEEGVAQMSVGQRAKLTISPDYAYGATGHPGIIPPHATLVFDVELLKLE

Compound	induction of formation of nano-assembly matrices depending on fluorescent protein (FKBP protein; ECFP, TagCFP or mTFP1 between FKBP and ferritin)	time to formation of nano-assembly matrices (FKBP protein; two FKBP (wild type) fused to ferritin)	formation of nano-assembly matrix (IkBα and IKKb)
CCC(C)(C)C(=O)C(=O)N1CCCC[C@H]1C(=O)O[C@H](CCc1ccc(OC)c(OC)c1)c1cccc(OCC(=O)NCCNC(=O)COc2cccc([C@@H](CCc3ccc(OC)c(OC)c3)OC(=O)[C@@H]3CCCCN3C(=O)C(=O)C(C)(C)CC)c2)c1 [AP1510]	induced more effectively in the case of TagCFP-mTFP1 and mTFP1 than the case of ECFP	≤ 1 h	
TNFa			a large nano-assembly matrix was formed in cells
